In article PMC2748668 (Pharmacological research : the official journal of the …, 2009) one finds Ki and Km data, which are given here for 21 compounds.

For one series, the target named is T1, human OATP1B1 (Homo sapiens, UniProt Q9Y6L6).
T1 sequence (Q9Y6L6 1-691): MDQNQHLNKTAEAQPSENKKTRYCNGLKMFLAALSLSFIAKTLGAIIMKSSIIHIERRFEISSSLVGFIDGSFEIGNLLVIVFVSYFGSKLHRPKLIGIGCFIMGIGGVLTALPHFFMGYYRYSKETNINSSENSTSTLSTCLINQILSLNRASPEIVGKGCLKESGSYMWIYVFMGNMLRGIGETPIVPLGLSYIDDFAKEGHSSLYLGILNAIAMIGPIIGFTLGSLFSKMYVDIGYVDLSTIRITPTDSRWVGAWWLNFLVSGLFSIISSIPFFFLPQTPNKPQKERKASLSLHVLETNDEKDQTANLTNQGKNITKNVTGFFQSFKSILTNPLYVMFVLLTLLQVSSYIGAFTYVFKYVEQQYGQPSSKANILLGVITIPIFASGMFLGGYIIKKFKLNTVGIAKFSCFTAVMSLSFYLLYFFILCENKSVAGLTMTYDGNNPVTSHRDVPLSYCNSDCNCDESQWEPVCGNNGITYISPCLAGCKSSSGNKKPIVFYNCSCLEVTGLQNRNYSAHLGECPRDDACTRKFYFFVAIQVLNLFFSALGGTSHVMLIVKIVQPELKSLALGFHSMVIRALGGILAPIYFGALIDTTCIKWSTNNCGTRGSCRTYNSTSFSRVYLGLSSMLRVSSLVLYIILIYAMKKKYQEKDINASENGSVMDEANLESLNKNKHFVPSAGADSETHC
Assay: not given
Details: not given
Regarding `C[C@]12CC[C@@H]3c4ccc(OS(=O)(=O)O)cc4CC[C@H]3[C@@H]1CCC2=O` [Estrone-3-sulfate], the Ki worked out at 0.2 ± 0.02 µM. Compound `CN(CCOc1ccc(C[C@H](Nc2ccccc2C(=O)c2ccccc2)C(=O)O)cc1)c1ccccn1` [GW1929] had an inhibition constant Ki of 0.3 ± 0.05 µM. This Ki and that of the compound before are within 1.5-fold of each other. The same measure, in the same setting: under `CC(C)c1onc(-c2c(Cl)cccc2Cl)c1COc1ccc(/C=C/c2cccc(C(=O)O)c2)c(Cl)c1` [GW4064] stands 32.4 ± 6.7 µM.

For a further series, the system named is OATP1B1.
Assay: not given
The settings on record: estrone-3-sulfate as substrate of OATP1B1; cited from earlier work.
Turning to `C[C@]12CC[C@@H]3c4ccc(OS(=O)(=O)O)cc4CC[C@H]3[C@@H]1CCC2=O` [Estrone-3-sulfate], the Km is 2.4 µM.

The subject of another series is Oatp1a5.
Assay: not given
The settings on record: estrone-3-sulfate as substrate of Oatp1a5; cited from earlier work.
`C[C@]12CC[C@@H]3c4ccc(OS(=O)(=O)O)cc4CC[C@H]3[C@@H]1CCC2=O` [Estrone-3-sulfate]: the Km was 268 µM.

The next series addresses T1, human OATP1B1. As to the kind of experiment: cell-based.
Details: not given
In turn, `C[C@@]12CCC[C@H]1[C@@H]1CC[C@H]3CCCC[C@]3(C)[C@H]1CC2` had a Ki of 374 ± 123 µM. The same measure, in the same setting: under `CC(C)(Oc1ccc(CCNC(=O)c2ccc(Cl)cc2)cc1)C(=O)O` [Bezafibrate] stands 45.2 ± 5.9 µM; under `C[C@H](CCC(=O)O)[C@H]1CC[C@H]2[C@@H]3[C@H](O)C[C@@H]4C[C@H](O)CC[C@]4(C)[C@H]3CC[C@]12C` [Chenodeoxycholic acid], 3.4 ± 0.5 µM; under `C[C@H](CCC(=O)O)[C@H]1CC[C@H]2[C@@H]3[C@H](O)C[C@@H]4C[C@H](O)CC[C@]4(C)[C@H]3C[C@H](O)[C@]12C` [Cholic acid], 25 ± 3.3 µM.

In turn, `Clc1ccccc1C(c1ccccc1)(c1ccccc1)n1ccnc1` [Clotrimazole] gave a Ki of 7.6 ± 1.9 µM. Still for that read-out and setting: under `C[C@H](CCC(=O)O)[C@H]1CC[C@H]2[C@@H]3C(=O)C[C@@H]4CC(=O)CC[C@]4(C)[C@H]3CC(=O)[C@]12C` [Dehydrocholic acid] stands 29.7 ± 5.7 µM.

Consider `C[C@H](CCC(=O)O)[C@H]1CC[C@H]2[C@@H]3CC[C@@H]4C[C@H](O)CC[C@]4(C)[C@H]3C[C@H](O)[C@]12C` [Deoxycholic acid], for which the Ki is 3.2 ± 0.5 µM. On the same count and under the same terms, under `C[C@]12CC[C@@H]3c4ccc(O)cc4CC[C@H]3[C@@H]1CC[C@@H]2O` [Estradiol] stands 3.3 ± 0.6 µM; under `CC(C)OC(=O)C(C)(C)Oc1ccc(C(=O)c2ccc(Cl)cc2)cc1` [Fenofibrate], 105 ± 26.7 µM; under `C[C@H](CCC(=O)NCC(=O)O)[C@H]1CC[C@H]2[C@@H]3[C@H](O)C[C@@H]4C[C@H](O)CC[C@]4(C)[C@H]3C[C@H](O)[C@]12C` [Glycocholic acid], 22.2 ± 3.9 µM.

On to `C[C@H](CCC(=O)O)[C@H]1CC[C@H]2[C@@H]3CC[C@@H]4C[C@H](O)CC[C@]4(C)[C@H]3CC[C@]12C` [Lithocholic acid], for which the Ki was found to be 1.2 ± 0.2 µM. `CC[C@H](C)C(=O)O[C@H]1C[C@@H](C)C=C2C=C[C@H](C)[C@H](CC[C@@H]3C[C@@H](O)CC(=O)O3)[C@H]21` [Mevinolin]: the Ki turned out to be 12.7 ± 1.9 µM. The compound `CC#C[C@]1(O)CC[C@H]2[C@@H]3CCC4=CC(=O)CCC4=C3[C@@H](c3ccc(N(C)C)cc3)C[C@@]21C` [Mifepristone] registered a Ki of 2.2 ± 0.3 µM. Same read-out and setting: under `CC[C@H](C)C(=O)O[C@H]1C[C@H](O)C=C2C=C[C@H](C)[C@H](CC[C@@H](O)C[C@@H](O)CC(=O)O)[C@H]21` [Pravastatin] stands 21.8 ± 3.6 µM. Still for that read-out and setting: under `NC(Cc1cc(I)c(Oc2cc(I)c(O)c(I)c2)c(I)c1)C(=O)O` (centres unmarked) [Thyroxine] stands 3.5 ± 0.7 µM; under `Cc1cccc(Nc2cc(Cl)nc(SCC(=O)O)n2)c1C` [WY-14643], 1.6 ± 0.11 µM.

The target in a further series is T1, human OATP1B1. The series can be described thus: Inhibition kinetic studies.
Details: not given
`C[C@H](CCC(=O)NCCS(=O)(=O)O)[C@H]1CC[C@H]2[C@@H]3[C@H](O)C[C@@H]4C[C@H](O)CC[C@]4(C)[C@H]3C[C@H](O)[C@]12C` [Taurocholic acid]: the Ki was 11.4 ± 3.2 µM.

Still in this series, the particulars now being: Km of the model substrate given in the Ki column (footnote *), mean ± SD.
`C[C@]12CC[C@@H]3c4ccc(O)cc4CC[C@H]3[C@@H]1CC[C@@H]2O[C@@H]1O[C@H](C(=O)O)[C@@H](O)[C@H](O)[C@H]1O`: the Km was determined as 5.9 ± 1.2 µM.

Broadly, the Ki is a measure of affinity in units of concentration, obtained from inhibition or displacement. By Km is commonly meant the concentration of substrate that gives half-maximal velocity.
